Where “and” joins values, the source holds several entries; their conditions need not be identical. Equal values may be shown once. Toxic doses and inconclusive results are not listed. How the source made its calls: active means survival T/C of 150% or more; inactive means T/C below 125% in these data. Non-standard residues stand in square brackets, D forms with d. Residues, ends and D or L forms follow the SMILES beside them. Deg = CCC(N)(CC)C(=O)O
Test system: CD2F1 mice, L1210 leukemia ip, survival T/C
Test: NCI In Vivo Anticancer Drug Screen. Data for tumor model L1210 Leukemia (intraperitoneal) in CD2F1 (CDF1) mice
Conditions: endpoint: mean survival time, higher = longer survival
Procedure, shortened: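 Implant tumor; dose compound or vehicle; measure endpoint in both groups; report treated divided by control.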

[1] = dose: 100.0 mg/kg/injection, schedule: Q01DX009 (ip), vehicle: saline with Tween-80
[2] = dose: 100.0 mg/kg/injection, schedule: Q04DX003 (ip), vehicle: saline with Tween-80
[3] = dose: 200.0 mg/kg/injection, schedule: Q01DX009 (ip), vehicle: saline with Tween-80
[4] = dose: 200.0 mg/kg/injection, schedule: Q04DX003 (ip), vehicle: saline with Tween-80
[5] = dose: 400.0 mg/kg/injection, schedule: Q01DX009 (ip), vehicle: saline with Tween-80
[6] = dose: 400.0 mg/kg/injection, schedule: Q04DX003 (ip), vehicle: saline with Tween-80
[7] = dose: 100.0 mg/kg/injection, schedule: Q04DX003 (ip), vehicle: saline
[8] = dose: 200.0 mg/kg/injection, schedule: Q04DX003 (ip), vehicle: saline
[9] = dose: 400.0 mg/kg/injection, schedule: Q04DX003 (ip), vehicle: saline
[10] = dose: 75.0 mg/kg/injection, schedule: Q01DX001 (ip), vehicle: other
[11] = dose: 150.0 mg/kg/injection, schedule: Q01DX001 (ip), vehicle: other
[12] = dose: 300.0 mg/kg/injection, schedule: Q01DX001 (ip), vehicle: other
[13] = dose: 50.0 mg/kg/injection, schedule: Q01DX009 (ip), vehicle: saline with Tween-80
[14] = dose: 100.0 mg/kg/injection, schedule: Q04DX002 (ip), vehicle: saline with Tween-80
[15] = dose: 200.0 mg/kg/injection, schedule: Q04DX002 (ip), vehicle: saline with Tween-80
[16] = dose: 400.0 mg/kg/injection, schedule: Q04DX002 (ip), vehicle: saline with Tween-80
[17] = dose: 25.0 mg/kg/injection, schedule: Q04DX003 (ip), vehicle: saline with Tween-80

Measured: T/C

CC(=O)N(c1c(-c2ccccc2)nc2ccccc2c1C(=O)O)C1CCCCC1
inactive: [1] 100 % of control | [2] 102 % of control | [3] 96 % of control | [4] 98 % of control | [5] 90 % of control | [6] 90 % of control

CC1(C)N=C(N)N=C(N)N1c1ccc(OCCCOc2ccc(S(=O)(=O)F)cc2)c(Cl)c1
inactive: dose: 6.25 mg/kg/injection, schedule: Q01DX009 (ip), vehicle: saline 104 % of control | dose: 12.5 mg/kg/injection, schedule: Q01DX009 (ip), vehicle: saline 98 % of control | dose: 25.0 mg/kg/injection, schedule: Q01DX009 (ip), vehicle: saline 104 % of control

CN(C)N=Nc1ccc(C(=O)N/N=C/c2ccc([N+](=O)[O-])cc2)cc1
inactive: [7] 97 % of control | [8] 93 % of control | [9] 93 % of control

CN(C)Cc1cc(O)cc(CN(C)C)c1O
inactive: [10] 98 % of control | [11] 96 % of control | [12] 98 % of control

CC(=O)NC(CSCc1c2ccccc2c(C)c2c1ccc1ccccc12)C(=O)O (centres undefined)
inactive: [13] 103 % of control | [1] 95 % of control | [2] 93 % of control | [3] 103 % of control | [4] 90 % of control

CN1CCCCCC1
inactive: [2] 100 % of control | [4] 111 % of control

O=C(O)/C=C/C(=O)Nc1ccc(Cl)cc1
inactive: [1] 104 % of control | [3] 89 % of control

COC(=O)CCC(=O)c1cccc(C)c1
inactive: dose: 200.0 mg/kg/injection, schedule: Q04DX003 (ip), vehicle: acetone 91 % of control | dose: 400.0 mg/kg/injection, schedule: Q04DX003 (ip), vehicle: acetone 89 % of control

NNc1ncnc2c1ccn2C1OC(CO)C(O)C1O (centres undefined)
inactive: dose: 35.0 mg/kg/injection, schedule: Q01DX001 (ip), vehicle: saline 116 % of control | dose: 53.0 mg/kg/injection, schedule: Q01DX001 (ip), vehicle: saline 110 % of control | dose: 80.0 mg/kg/injection, schedule: Q01DX001 (ip), vehicle: saline 112 % of control | dose: 120.0 mg/kg/injection, schedule: Q01DX001 (ip), vehicle: saline 116 % of control

C1=C(CN2CCCCC2)COc2ccccc21
inactive: dose: 37.5 mg/kg/injection, schedule: Q04DX003 (ip), vehicle: saline 107 % of control | dose: 75.0 mg/kg/injection, schedule: Q01DX001 (ip), vehicle: saline 98 % of control | dose: 75.0 mg/kg/injection, schedule: Q04DX003 (ip), vehicle: saline 104 % of control | dose: 150.0 mg/kg/injection, schedule: Q01DX001 (ip), vehicle: saline 97 % of control | dose: 150.0 mg/kg/injection, schedule: Q04DX003 (ip), vehicle: saline 104 % of control

CCOC(=O)C(C(=O)OCC)C1c2ccccc2C(=O)N(CCN(C)C)c2ccccc21 (centres undefined)
inactive: dose: 130.0 mg/kg/injection, schedule: Q01DX001 (ip), vehicle: saline 103 % of control

Cc1cccc(C)c1NC(=S)NNC(=O)NNC(=S)Nc1c(C)cccc1C
inactive: [1] 95 % of control | [3] 95 % of control | [5] 105 % of control

CCC[CH2][Sn]([CH2]CC)([CH2]CCC)[O]C(=O)c1ccccc1
inactive: dose: 0.78 mg/kg/injection, schedule: Q01DX009 (ip), vehicle: saline with Tween-80 104 % of control | dose: 1.56 mg/kg/injection, schedule: Q01DX009 (ip), vehicle: saline with Tween-80 107 % of control

O=P(CCC(O)c1ccccc1)(c1ccccc1)c1ccccc1 (centres undefined)
inactive: [13] 96 % of control | [1] 92 % of control | [2] 97 % of control | [4] 87 % of control

COc1cc(/C=N/N2CCCCC2)cc(OC)c1OC
inactive: [2] 104 % of control | [4] 95 % of control | [6] 111 % of control

CC1C(=O)OC2C1CCC1(C)C=CC(=O)C(C)(Cl)C21O (centres undefined)
inactive: [14] 100 % of control | [15] 100 % of control | [16] 91 % of control and 87 % of control

COc1ccccc1C1C=CCCCC1 (centres undefined)
inactive: [7] 95 % of control | [8] 93 % of control | [9] 96 % of control

CCC(c1ccc2cc(OC)ccc2c1)C(CC(=O)O)C(=O)OC (centres undefined)
inactive: dose: 100.0 mg/kg/injection, schedule: Q01DX009 (ip), vehicle: Klucel (hydroxypropylcellulose) (HPC) 98 % of control | dose: 200.0 mg/kg/injection, schedule: Q01DX009 (ip), vehicle: Klucel (hydroxypropylcellulose) (HPC) 98 % of control | dose: 400.0 mg/kg/injection, schedule: Q01DX009 (ip), vehicle: Klucel (hydroxypropylcellulose) (HPC) 100 % of control

CNC(=O)NC1C(O)C(OC)OC2COC(c3ccccc3)OC21 (centres undefined)
inactive: [2] 97 % of control | [4] 97 % of control | [6] 95 % of control

CCC(CC)(NC(=O)CN)C(=O)O (H-Gly-[Deg]-OH)
inactive: [14] 96 % of control | [15] 104 % of control | [16] 96 % of control

C=C1CC(=O)N(c2ccc(OC)cc2)C1=O
inactive: [17] 100 % of control | dose: 50.0 mg/kg/injection, schedule: Q04DX003 (ip), vehicle: saline with Tween-80 107 % of control | [2] 104 % of control

CCC(O)C[As](=O)(O)c1ccccc1OC (centres undefined)
inactive: dose: 6.25 mg/kg/injection, schedule: Q04DX003 (ip), vehicle: saline with Tween-80 97 % of control | dose: 12.5 mg/kg/injection, schedule: Q04DX003 (ip), vehicle: saline with Tween-80 97 % of control | [17] 103 % of control

CC(O)CC1CC(=O)CCC1=O (centres undefined)
inactive: dose: 100.0 mg/kg/injection, schedule: Q01DX001 (ip), vehicle: saline with Tween-80 98 % of control | dose: 200.0 mg/kg/injection, schedule: Q01DX001 (ip), vehicle: saline with Tween-80 103 % of control | dose: 400.0 mg/kg/injection, schedule: Q01DX001 (ip), vehicle: saline with Tween-80 95 % of control

ICC1COC(CI)CO1 (centres undefined)
inactive: [1] 102 % of control | [2] 105 % of control | [3] 96 % of control | [4] 110 % of control | [5] 100 % of control | [6] 100 % of control

CC(=O)OC(OC(C)=O)c1cccc([N+](=O)[O-])c1
inactive: [1] 102 % of control | [3] 93 % of control | [5] 96 % of control

O=C(O)c1cccc([N+](=O)[O-])c1C(=O)c1ccccc1
inactive: [1] 107 % of control | [3] 102 % of control

CCCCOC(=O)c1n[nH]c(C)c1N=NN1CCOCC1
inactive: [10] 105 % of control | [11] 97 % of control | [12] 103 % of control

CC1CC(C)(C)NC(CCC2NC(C)(C)CC(C)O2)O1 (centres undefined)
inactive: [1] 92 % of control

CN(C)C(=O)C1C2CCCC(CC2)C1C(=O)N(C)C (centres undefined)
inactive: dose: 100.0 mg/kg/injection, schedule: Q04DX002 (ip), vehicle: saline 100 % of control | dose: 200.0 mg/kg/injection, schedule: Q04DX002 (ip), vehicle: saline 91 % of control | dose: 400.0 mg/kg/injection, schedule: Q04DX002 (ip), vehicle: saline 95 % of control

CNC(=O)SCc1ccc(Cl)cc1
inactive: [2] 98 % of control | [4] 96 % of control | [6] 102 % of control

SCCS
inactive: [13] 105 % of control | [1] 105 % of control | [3] 94 % of control | [15] 91 % of control

Brc1ccccc1CCc1ccccc1Br
inactive: dose: 50.0 mg/kg/injection, schedule: Q04DX003 (ip), vehicle: saline 97 % of control | [7] 95 % of control | [8] 100 % of control

CC(=O)c1cc2ccccc2c2ccccc12
inactive: [13] 89 % of control | [1] 97 % of control | [3] 101 % of control

Cc1ccc(P(=S)(c2ccccc2)c2ccc(C)c3ccccc23)c2ccccc12
inactive: dose: 100.0 mg/kg/injection, schedule: Q01DX001 (ip), vehicle: saline 97 % of control | dose: 200.0 mg/kg/injection, schedule: Q01DX001 (ip), vehicle: saline 91 % of control | dose: 400.0 mg/kg/injection, schedule: Q01DX001 (ip), vehicle: saline 93 % of control

COc1ccc(/C=N\N2C(=O)/C(=C\c3ccc(OC)cc3)SC2=S)cc1
inactive: [2] 97 % of control | [4] 93 % of control | [6] 89 % of control

CCCCCCCCCCCCC[n+]1ccc(C#N)cc1
inactive: dose: 7.5 mg/kg/injection, schedule: Q01DX001 (ip), vehicle: saline 102 % of control | dose: 7.5 mg/kg/injection, schedule: Q01DX009 (ip), vehicle: saline 107 % of control | dose: 15.0 mg/kg/injection, schedule: Q01DX001 (ip), vehicle: saline 94 % of control | dose: 15.0 mg/kg/injection, schedule: Q01DX009 (ip), vehicle: saline 101 % of control | dose: 30.0 mg/kg/injection, schedule: Q01DX001 (ip), vehicle: saline 97 % of control

— PubChem BioAssay AID256 (DTP/NCI, 2004)
